Experimental data as given in article PMC3274588 (The Plant Journal, 2011).
Changes are numbered by the printed parent chain. Read-outs that look alike come from different tables or passages of the source.

How the values were obtained:
[1] = target: T1, ACD2 (ACCELERATED CELL DEATH 2; ACD2^40-320; Red Chlorophyll Catabolite Reductase) (Arabidopsis thaliana, UniProt Q8LDU4); test: intrinsic tryptophan fluorescence quenching; format: binding
T1 sequence (Q8LDU4 40-319): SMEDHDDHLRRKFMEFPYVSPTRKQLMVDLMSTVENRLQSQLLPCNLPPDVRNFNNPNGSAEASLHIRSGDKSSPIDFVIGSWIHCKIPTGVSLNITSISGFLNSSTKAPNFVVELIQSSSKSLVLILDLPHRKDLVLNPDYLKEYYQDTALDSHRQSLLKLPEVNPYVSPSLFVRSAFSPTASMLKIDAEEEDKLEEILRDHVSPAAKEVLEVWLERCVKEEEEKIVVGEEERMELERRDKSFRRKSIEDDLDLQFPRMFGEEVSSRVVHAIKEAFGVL

[2] = target: T2, ACD2 (ACCELERATED CELL DEATH 2; ACD2^40-320; Red Chlorophyll Catabolite Reductase) (Arabidopsis thaliana, UniProt Q8LDU4, E154A/D291H); test: intrinsic tryptophan fluorescence quenching; format: binding; details: 0.1 μM protein, 50 mM Na2HPO4 pH 8.0, 25 mM NaCl, 22°C, excitation 296 nm
T2 sequence (Q8LDU4 40-319 E154A/D291H): T1 sequence (Q8LDU4 40-319) with E115A, D252H

SMILES	Kd [1]	Kd ([1]; 0.1 μM protein, 50 mM Na2HPO4 pH 8.0, 25 mM NaCl, 22°C, excitation 296 nm)	Kd [2]
C=CC1=C(C)c2cc3[nH]c(cc4nc(cc5[nH]c(cc1n2)c(C)c5CCC(=O)O)C(CCC(=O)O)=C4C)c(C)c3C=C [PPIX]	310 ± 20 nM	–	–
C=CC1=C(C)/C(=C/C2=NC(=C3\c4[nH]c(Cc5[nH]c(C=O)c(C)c5CC)c(C)c4C(=O)[C@@H]3C(=O)OC)/[C@@H](CCC(=O)O)[C@@H]2C)NC1=O [RCC]	–	360 ± 30 nM	340 ± 30 nM
